Tests used:
Experiment in all cases: normalised response (% of control), CellTiter-Glo; higher = more viable cells (100 = DMSO, 0 = benzethonium chloride kill control)
Details in all cases: incubation time: 72 h
BT-474 = tested on: BT-474
In short: (§1)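 Breast cancer cell lines, seeded at 20 µl suspension per well, were incubated for 72 h in 384-well plates containing compound at 5 concentrations. These concentrations rose in 10-fold steps over a 10,000-fold range set for each compound. CellTox Green fluorescence (485/520 nm) was read, then CellTiter-Glo luminescence after 10 min at room temperature, and each plate was normalised to 0.1 % DMSO (100) and a positive kill control (0). Values are normalised signals, each at one concentration.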

BT-549 = tested on: BT-549
In short: as §1

CAL-120 = tested on: CAL-120
In short: as §1

CAL-148 = tested on: CAL-148
In short: as §1

CAL-51 = tested on: CAL-51
In short: as §1

CAL-85-1 = tested on: CAL-85-1
In short: as §1

DU-4475 = tested on: DU-4475
In short: as §1

HCC1143 = tested on: HCC1143
In short: as §1

HCC1937 = tested on: HCC1937
In short: as §1

HDQ-P1 = tested on: HDQ-P1
In short: as §1

Hs578T = tested on: Hs578T
In short: as §1

MCF-10A = tested on: MCF-10A
In short: as §1

MDA-MB-231 = tested on: MDA-MB-231
In short: as §1

MDA-MB-436 = tested on: MDA-MB-436
In short: as §1

MDA-MB-453 = tested on: MDA-MB-453
In short: as §1

MDA-MB-468 = tested on: MDA-MB-468
In short: as §1

MFM-223 = tested on: MFM-223
In short: as §1

SK-BR-3 = tested on: SK-BR-3
In short: as §1

| Structure (SMILES) | normalised response (BT-474) [%] | normalised response (BT-549) [%] | normalised response (CAL-120) [%] | normalised response (CAL-148) [%] | normalised response (CAL-51) [%] | normalised response (CAL-85-1) [%] | normalised response (DU-4475) [%] | normalised response (HCC1143) [%] | normalised response (HCC1937) [%] | normalised response (HDQ-P1) [%] | normalised response (Hs578T) [%] | normalised response (MCF-10A) [%] | normalised response (MDA-MB-231) [%] | normalised response (MDA-MB-436) [%] | normalised response (MDA-MB-453) [%] | normalised response (MDA-MB-468) [%] | normalised response (MFM-223) [%] | normalised response (SK-BR-3) [%] |
| --- | --- | --- | --- | --- | --- | --- | --- | --- | --- | --- | --- | --- | --- | --- | --- | --- | --- | --- |
| CCNC(=O)CCC/C=C\C[C@@H]1[C@@H](/C=C/[C@@H](O)CCc2ccccc2)[C@H](O)C[C@@H]1O [Bimatoprost] (5500 nM) | 95 | 102 | 95.8 | 88.3 | 160 | 91.1 | 96.7 | 94.8 | 91.9 | 91.7 | 101 | 90.3 | 99.5 | 104 | 91.2 | 91.6 | 88.2 | 83.8 |
| CC(C)(C)NC(=O)[C@H]1CC[C@H]2[C@@H]3CC[C@H]4NC(=O)C=C[C@]4(C)[C@H]3CC[C@]12C [Finasteride] (10000 nM) | 96.5 | 91.7 | 99.7 | 105 | 91.7 | 96.5 | 103 | 96.6 | 97.8 | 95.7 | 99.9 | 110 | 102 | 108 | 93.4 | 102 | 93.4 | 94.4 |
| Cc1cc(Nc2nc(N[C@@H](C)c3ncc(F)cn3)ncc2Cl)[nH]n1 [AZD1480] (1000 nM) | 82.5 | 82.1 | 70 | 87.3 | 110 | 96 | 81.7 | 92.7 | 96 | 93.6 | 82 | 89.5 | 78.2 | 91.6 | 72.4 | 84.6 | 50.8 | 90.5 |
| CC(C)C[C@H](NC(=O)[C@@H](COC(C)(C)C)NC(=O)[C@H](Cc1ccc(O)cc1)NC(=O)[C@H](CO)NC(=O)[C@H](Cc1c[nH]c2ccccc12)NC(=O)[C@H](Cc1cnc[nH]1)NC(=O)[C@@H]1CCC(=O)N1)C(=O)N[C@@H](CCCNC(=N)N)C(=O)N1CCC[C@H]1C(=O)NNC(N)=O [Goserelin] (10000 nM) | 92.6 | 101 | 94.8 | 91.2 | 113 | 93.8 | 97.1 | 101 | 96 | 101 | 96.5 | 100 | 101 | 97.7 | 101 | 93.7 | 98.9 | 102 |
| CNC(=O)c1ccccc1Sc1ccc2c(/C=C/c3ccccn3)n[nH]c2c1 [Axitinib] (10000 nM) | 80.4 | 49.7 | 75.8 | 67 | 38.6 | 120 | 76 | 79 | 79.2 | 77.8 | 61.4 | 78.6 | 94.5 | 64.1 | 113 | 24.5 | 49.3 | 77 |
| O=C(CCCCCCC(=O)Nc1ccccc1)NO [Vorinostat] (10000 nM) | 17.3 | 47.7 | 46.1 | 29.6 | 22.8 | 44.2 | 27.8 | 24.4 | 43.6 | 64.3 | 34 | 43.3 | 15 | 52.2 | 3.2 | 22 | 31.5 | 14.1 |
| CO[C@@]12[C@H](COC(N)=O)C3=C(C(=O)C(C)=C(N)C3=O)N1C[C@@H]1N[C@@H]12 [Mitomycin C] (10000 nM) | 69.5 | 15 | 88.1 | 51 | 5.75 | 57 | 69 | 71 | 73.3 | 84.1 | 91.1 | 73 | 82.5 | 41.7 | 85.8 | 22.5 | 86.5 | 58.4 |
| C=CCn1c(=O)c2cnc(Nc3ccc(N4CCN(C)CC4)cc3)nc2n1-c1cccc(C(C)(C)O)n1 [MK1775] (10000 nM) | 29.4 | 6.99 | 22.8 | 9.04 | 8.21 | 11.4 | 11.9 | 17.5 | 28.3 | 17.4 | 22 | 19 | 23.7 | 15.8 | 44 | 6.6 | 36.1 | 8.92 |
| C/C(=C\c1csc(C)n1)[C@@H]1C[C@@H]2O[C@]2(C)CCC[C@H](C)[C@H](O)[C@@H](C)C(=O)C(C)(C)[C@@H](O)CC(=O)N1 [Ixabepilone] (1000 nM) | 41.9 | 20.8 | 98 | 107 | 23.7 | 26.1 | 100 | 97.6 | 104 | 99.1 | 99 | 95.6 | 73.8 | 103 | 106 | 23 | 101 | 104 |
| CO[C@@H]1[C@H](N(C)C(=O)c2ccccc2)C[C@H]2O[C@]1(C)n1c3ccccc3c3c4c(c5c6ccccc6n2c5c31)C(=O)NC4 [Midostaurin] (10000 nM) | 41.7 | 4.02 | 46.2 | 88.1 | 11.5 | 76 | 34.1 | 45.9 | 50.1 | 54.4 | 16.8 | 24.9 | 40.7 | 68.8 | 110 | 29.4 | 66.5 | 45.2 |

Reference: the supplement of paper PMC4862054
